Values quoted from earlier work as cited in US20250170146A1, “NIRAPARIB AND ABIRATERONE ACETATE PLUS PREDNISONE TO IMPROVE CLINICAL OUTCOMES IN PATIENTS WITH METASTATIC CASTRATION-RESISTANT PROSTATE CANCER AND HRR ALTERATIONS” (JANSSEN PHARMACEUTICA NV, priority 2022, published 2025).
Like-named read-outs stand apart in the source and are kept apart here. Each block holds one compound with its values, some of them ahead of it.

Assays:
[1] = target: T1, CYP2C8 (Homo sapiens, UniProt P10632); details: pioglitazone with a single dose of 1,000 mg AA; healthy subjects
T1 construct: host or cells: healthy subjects (in vivo; the subjects' own enzyme)
T1 sequence (P10632 1-490): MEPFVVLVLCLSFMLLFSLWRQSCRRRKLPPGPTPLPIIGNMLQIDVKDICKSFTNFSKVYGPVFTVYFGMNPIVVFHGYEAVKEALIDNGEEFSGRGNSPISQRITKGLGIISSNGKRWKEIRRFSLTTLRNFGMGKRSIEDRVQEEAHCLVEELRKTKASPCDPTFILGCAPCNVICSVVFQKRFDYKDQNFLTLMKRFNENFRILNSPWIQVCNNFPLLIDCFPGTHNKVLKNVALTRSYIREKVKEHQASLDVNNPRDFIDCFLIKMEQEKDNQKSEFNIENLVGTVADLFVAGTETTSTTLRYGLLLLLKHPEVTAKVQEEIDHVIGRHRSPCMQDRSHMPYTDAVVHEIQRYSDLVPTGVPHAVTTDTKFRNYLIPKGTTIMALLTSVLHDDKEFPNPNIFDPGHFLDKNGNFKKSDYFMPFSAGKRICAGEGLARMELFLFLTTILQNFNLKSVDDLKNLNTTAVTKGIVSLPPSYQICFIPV

[2] = tested on: post-docetaxel mCRPC; details: Affirm
[3] = tested on: first line (pre-docetaxel) mCRPC; details: Prevail
[4] = tested on: mCRPC; details: TAX-327
[5] = tested on: L2+ mCRPC HRR-positive

increase in AUC of pioglitazone [1]: 46%
Compound: CC(=O)O[C@H]1CC[C@@]2(C)C(=CC[C@@H]3[C@@H]2CC[C@]2(C)C(c4cccnc4)=CC[C@@H]32)C1 [AA, Abiraterone acetate]

Compound: CNC(=O)c1ccc(N2C(=S)N(c3ccc(C#N)c(C(F)(F)F)c3)C(=O)C2(C)C)cc1F [Enzalutamide]
OS [2]: 18.4 months
OS benefit vs placebo [2]: 4.8 months
PSA50 response [2]: 54%
QoL response rate [2]: 43%
TTPSA progression [2]: 8.3 months
rPFS [2]: 8.3 months
12-month rPFS milestone [3]: 65%
investigator assessed rPFS [3]: 20 months
median OS [3]: 35.3 months
median rPFS [3]: not reached
objective response rate (ORR) [3]: 59%
rPFS benefit by BICR Hazard Ratio [3]: 0.32
rPFS risk reduction by BICR [3]: 68%

Compound: CC(=O)O[C@@]12CO[C@@H]1C[C@H](O)[C@@]1(C)C(=O)[C@H](O)C3=C(C)[C@@H](OC(=O)[C@H](O)[C@@H](NC(=O)OC(C)(C)C)c4ccccc4)C[C@@](O)([C@@H](OC(=O)c4ccccc4)[C@H]21)C3(C)C [docetaxel]
OS benefit vs mitoxantrone [4]: 2.4 months
PSA50 response [4]: 45%
overall survival (OS) [4]: 18.9 months
quality of life (QoL) response [4]: 22%
tumor response [4]: 12%

Compound: O=C1c2c(O)ccc(O)c2C(=O)c2c(NCCNCCO)ccc(NCCNCCO)c21 [mitoxantrone]
PSA50 response [4]: 32%
overall survival (OS) [4]: 16.5 months
quality of life (QoL) response [4]: 13%
tumor response [4]: 7%

Compound: Cc1ccc(S(=O)(=O)O)cc1.NC(=O)c1cccc2cn(-c3ccc([C@@H]4CCCNC4)cc3)nc12 [niraparib, 2-[4-[(3S)-piperidin-3-yl]phenyl]-2H-indazole-7-carboxamide]
median OS ([5]; L2+ mCRPC BRCA patients): 13.01 months
median rPFS ([5]; L2+ mCRPC BRCA patients): 8.08 months
median time to PSA progression ([5]; L2+ mCRPC BRCA patients): 5.13 months
median time to symptomatic skeletal event ([5]; L2+ mCRPC BRCA patients): 13.80 months
overall response rate (ORR) ([5]; L2+ mCRPC BRCA patients): 34.2%
ORR ([5]; L2+ mCRPC non-BRCA patients): 10.6%
median OS ([5]; non-BRCA patients): 9.63 months
median rPFS ([5]; non-BRCA patients): 3.71 months
median time to PSA progression ([5]; non-BRCA patients): 3.65 months
median time to symptomatic skeletal event ([5]; non-BRCA patients): 10.35 months
